US20130109721A1, “FAAH Inhibitors” (Ironwood Pharmaceuticals, Inc., priority 2009, published 2013)

Biological target: T1, FAAH (Mus musculus, UniProt O08914)
T1 construct: Whole brain tissue from these mice was collected; from tissue; host or cells: CD-1 mouse whole brain membrane homogenate
T1 sequence (O08914 1-579): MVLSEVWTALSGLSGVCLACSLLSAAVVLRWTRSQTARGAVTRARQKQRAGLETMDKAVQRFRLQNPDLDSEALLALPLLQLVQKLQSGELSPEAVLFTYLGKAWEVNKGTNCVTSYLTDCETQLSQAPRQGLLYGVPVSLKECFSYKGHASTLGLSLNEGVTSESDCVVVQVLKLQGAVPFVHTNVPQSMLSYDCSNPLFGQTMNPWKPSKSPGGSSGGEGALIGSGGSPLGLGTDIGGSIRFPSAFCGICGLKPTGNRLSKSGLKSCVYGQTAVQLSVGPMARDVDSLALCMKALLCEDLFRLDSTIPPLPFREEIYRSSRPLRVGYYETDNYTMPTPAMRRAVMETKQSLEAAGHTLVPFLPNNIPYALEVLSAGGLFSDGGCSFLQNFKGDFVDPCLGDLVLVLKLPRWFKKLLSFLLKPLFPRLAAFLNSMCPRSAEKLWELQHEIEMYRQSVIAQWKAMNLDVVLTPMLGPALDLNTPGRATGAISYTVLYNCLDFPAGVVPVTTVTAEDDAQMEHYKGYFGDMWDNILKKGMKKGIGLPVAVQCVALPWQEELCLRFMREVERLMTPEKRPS
Experiment: FAAH inhibition, mouse brain membrane homogenate assay
Assay type: biochemical
Details: average; FAAH extracted from mouse brain homogenate; read-out: Mouse Brain FAAH Extract IC50
Method: Adult rats (Charles River CD strain, female, 200 g) were anaesthetized with isofluorane and rapidly decapitated. Each brain was quickly removed and chilled in tubes (3 brains per tube) on ice. About 25 mL of “homogenization buffer” (20 mM HEPES buffer, pH 7.0, with 1 mM MgCl2) was added to 15 to 20 g of brain. The brains were homogenized on ice for 1 minute using an Omni GLH homogenizer (Omni International, Marietta, Ga.). The homogenates were then transferred to three centrifuge tubes and centrifuged at 36,500 g for 20 minutes at 4° C. The supernatant was discarded and each pellet was re-suspended in 25 mL homogenization buffer. The re-suspended material was again centrifuged (36,500 g, 20 minutes at 4° C.). Pellets were combined by resuspension in 10 mL of homogenization buffer and incubated in a 37° C. water bath for 15 minutes. The tubes were then placed on ice for 5 minutes followed by centrifugation at 36,500 g for 20 minutes at 4° C. The supernatant was discarded and the membrane pellets were then re-suspended in 40 mL of “resuspension buffer” (50 mM Tris-HCl buffer, pH 7.4, containing 1 mM EDTA and 3 mM MgCl2). A Bradford Protein assay was performed to determine protein concentration. The protein was aliquotted into screw cap Cryo tubes each containing ˜400 μL, flash frozen in liquid nitrogen and stored at −80° C. until used for the assay. A similar protocol was used to obtain brain membrane homogenates from mice.
Eighteen 10 to 12 week old female CD-1 mice housed at the animal care facility of Ironwood Pharmaceuticals were anesthetized by isoflurane anesthesia and rapidly decapitated using a small decapitator (Harvard Apparatus part #PY8 SS-0012, Holliston, Mass.). Whole brain tissue from these mice was collected (approximately 9.4 g total) and placed on aluminum foil sitting on dry ice to flash freeze the tissue. Tissue was thawed and used to prepare microsomes as described above for rat brain homogenates.
FAAH activity was assayed in the respective homogenates described herein (Rat brain, Mouse brain or Human brain) for certain exemplary substrate compounds using a modification of the method of Omeir et al. (1995 Life Sci 56:1999) and Fowler et al. (1997 J. Pharmacol Exp Ther 283:729). For assay of FAAH activity in rat brain membrane (RBM) homogenates, RBM homogenates (7 μg protein in 20 μL final volume of 10 mM Tris pH 6.5) were mixed with 180 μL of a mixture of the following: 2.0 μM unlabelled anandamide, 0.03 μCi radio labeled anandamide [ethanolamine 1-^3H] (40-60 Cis/mmol, product number ART-626, American Radiolabeled Chemicals, St. Louis, Mo.), 1 mg/mL Bovine Serum Albumin (fatty acid-free BSA, electrophoresis grade, Sigma, St. Louis, Mo.), 10 mM Tris-HCl (pH 6.5), and 1 mM EDTA in the presence and absence of test compounds (vehicle was DMSO at a final concentration of 1%) and incubated for 10 minutes at 37° C. Samples were placed on ice to terminate the reactions.
^3H-ethanolamine product and un-reacted ^3H-anandamide substrate were then separated either: (1) by using chloroform/methanol extraction or (2) by passing the reaction mixture through a glass fiber filter containing activated charcoal. Samples were extracted with chloroform/methanol by adding 0.4 mL of chloroform/methanol (1:1 v/v), vigorously mixing the samples, and separating the aqueous and organic phases by centrifugation. Radioactivity (corresponding to FAAH-catalyzed breakdown of ^3H-anandamide) found in aliquots (0.2 mL) of the aqueous phase was determined by liquid scintillation counting with quench correction. IC50 values were determined as described by Jonsson et al. (2001 Br. J. Pharmacol. 133:1263). Alternatively, reactions were purified using a modification of the solid-phase extraction method described by Wilson et al (2003 Anal. Biochem. 318:270). […]

| SMILES | IC50 [µM] |
| --- | --- |
| Cc1c(C(=O)C(=O)Nc2cccc(Cl)c2)c2ccsc2n1Cc1ccc(Cl)cc1 [Compound I-08, 2-(6-(4-chlorobenzyl)-5-methyl-6H-thieno[2,3-b]pyrrol-4-yl)-N-(3-chlorophenyl)-2-oxoacetamide] | > 5 |
| COc1cc(NC(=O)C(=O)c2c(C)n(Cc3ccc(Cl)cc3)c3sccc23)ccn1 [Compound I-09, 2-(6-(4-chlorobenzyl)-5-methyl-6H-thieno[2,3-b]pyrrol-4-yl)-N-(2-methoxypyridin-4-yl)-2-oxoacetamide] | 0.062 |
| Cc1c(C(=O)C(=O)Nc2cccc(Cl)c2)c2c(n1Cc1ccc(Cl)cc1)CCCCCC2 [Compound I-10, 2-(1-(4-chlorobenzyl)-2-methyl-4,5,6,7,8,9-hexahydro-1H-cycloocta[b]pyrrol-3-yl)-N-(3-chlorophenyl)-2-oxoacetamide] | > 5 |
| COc1cc(NC(=O)C(=O)c2c3c(n(Cc4ccc(Cl)cc4)c2C)CCCCCC3)ccn1 [Compound I-11, 2-(1-(4-chlorobenzyl)-2-methyl-4,5,6,7,8,9-hexahydro-1H-cycloocta[b]pyrrol-3-yl)-N-(2-methoxypyridin-4-yl)-2-oxoacetamide] | 0.192 |
| Cc1c(C(=O)C(=O)Nc2cccc(Cl)c2)c2c(n1Cc1ccc(Cl)cc1)CCCCC2 [Compound I-12, 2-(1-(4-chlorobenzyl)-2-methyl-1,4,5,6,7,8-hexahydrocyclohepta[b]pyrrol-3-yl)-N-(3-chlorophenyl)-2-oxoacetamide] | 1.09 |
| COc1cc(NC(=O)C(=O)c2c3c(n(Cc4ccc(Cl)cc4)c2C)CCCCC3)ccn1 [Compound I-13, 2-(1-(4-chlorobenzyl)-2-methyl-1,4,5,6,7,8-hexahydrocyclohepta[b]pyrrol-3-yl)-N-(2-methoxypyridin-4-yl)-2-oxoacetamide] | 0.003 |
| Cc1c(C(=O)C(=O)Nc2cccc(Cl)c2)c2c(n1Cc1ccc(Cl)cc1)CCC(C)(C)C2 [Compound I-14, 2-(1-(4-chlorobenzyl)-2,5,5-trimethyl-4,5,6,7-tetrahydro-1H-indol-3-yl)-N-(3-chlorophenyl)-2-oxoacetamide] | 0.516 |
| COc1cc(NC(=O)C(=O)c2c3c(n(Cc4ccc(Cl)cc4)c2C)CCC(C)(C)C3)ccn1 [Compound I-15, 2-(1-(4-chlorobenzyl)-2,5,5-trimethyl-4,5,6,7-tetrahydro-1H-indol-3-yl)-N-(2-methoxypyridin-4-yl)-2-oxoacetamide] | 0.007 |
| Cc1c(C(=O)C(=O)Nc2cccc(Cl)c2)c2c(n1Cc1ccc(Cl)cc1)CCCC2 [Compound I-16, 2-(1-(4-chlorobenzyl)-2-methyl-4,5,6,7-tetrahydro-1H-indol-3-yl)-N-(3-chlorophenyl)-2-oxoacetamide] | 2.08 |
| COc1cc(NC(=O)C(=O)c2c3c(n(Cc4ccc(Cl)cc4)c2C)CCCC3)ccn1 [Compound I-18, 2-(1-(4-chlorobenzyl)-2-methyl-4,5,6,7-tetrahydro-1H-indol-3-yl)-N-(2-methoxypyridin-4-yl)-2-oxoacetamide] | 0.009 |
